Test results from US4072685A, “3-(3',4'-Disubstituted) phenyl piperidines” (Roussel Uclaf, priority 1975, dated 1978).
Counter-ions that a name gives are not always drawn.

Tests used:
reserpinic rigidity = assay: Antagonism against reserpinic rigidity (electromyogram provoked by dorsiflexion of the foot); format: in vivo, rats; parameters: key to Antagonism against reserpine: expressed in an increasing number of + as a function of the dose in mg/Kg; ++: expressed in an increasing number of + as a function of the dose in mg/Kg; +++: expressed in an increasing number of + as a function of the dose in mg/Kg; conditions: for Antagonism against reserpine: i.v., rats; for Antagonism against reserpinic rigidity, in words: results of Table I, Examples 5, 6 and 7 at a dose of 20 mg/kg
Experimental: The antagonism of the tested products against reserpinic rigidity was determined in rats using the procedure of Jurna I: Arch. Pharmak. Exp. Path., Vol. 260 (1968), p. 80-88 and the electromyogram (EMG) provoked by a dorsiflexion of the foot was determined with electrodes placed on the muscles of the anterior loge of the hind foot of the animal. A dose of 10 mg/Kg of reserpine was administered intraveinously and 30 minutes later when the muscle hypertonicity was maximal, the tested product was administered intraveinously at a dose of 10 or 20 mg/Kg. The electromyogram responses were determined before and after the administration of the tested compound and were compared for their intensity and duration.

[1] = Acute toxicity (50% lethal dose); conditions: mouse, in vivo, ip, mice, mortality 48 hours after administration
Experimental: The 50% lethal dose (LD50) was determined for the products after intraperitoneal administration to mice and the mortality was determined 48 hours after the administration of the tested product.

[2] = test system: nigrostriatal bundle (dopaminergic activity); assay: Rotating behavior after unilateral injury of nigrostriatal bundle, test (a): anodic lesion of right striatum; format: in vivo; conditions: i.p., male rats, 1 1/2 hours
Experimental: (§1) Among the animals having undergone a unilateral lesion of nigrostriatal bundle, the substances, having a dopaminergic activity induce a rotating behavior. The animals were male rats weighing about 250 g and female mice weighing about 22 g. The lesion was effected in test (a) in the right striatum of the male rats with a 2 mA anodic current for a duration of 30 seconds /Anden et al, Acta. Pharmacol. Toxicol., Vol. 24 (1966), p. 263-274/. The tested compounds were administered intraperitoneally to groups of 6 animals and they were individually placed in a rotometer which counted the number of rotations of each animal in two directions. Each test was continued for 11/2 hours.

[3] = test system: nigrostriatal bundle (dopaminergic activity); assay: Rotating behavior after unilateral injury of nigrostriatal bundle, test (b): 6-hydroxydopamine lesion of substantia nigra; format: in vivo; conditions: i.p., male rats, 1 1/2 hours
Experimental: as §1
In test (b) with the male rats, lesion was effected in the substantia nigra of each rat with 6-hydroxydopamine monohydrochloride at a dose of 20 μg per 4 μl of physiological serum containing 0.2 mg/ml of ascorbic acid by the method of Ungerstedt /Acta. physiol. scand., 1971 a, supp 367, p. 69-93/and the same conditions as in (a) were used.

[4] = test system: nigrostriatal bundle (dopaminergic activity); assay: Rotating behavior after unilateral injury of nigrostriatal bundle, test (c): striatum lesion by aspiration; format: in vivo; conditions: 100 mg/kg, i.p., female mice, observed for an hour
Experimental: as §1, with “Each test was continued for 11/2 hours.” left out
In test (c) with female mice, a lesion of the striatum was effected with a hypodermic needle with a diameter of 0.5 mm by aspiration under vacuum for 5 seconds with the method of Lotti /Life Science, Vol. 10 (1971) I, p. 781-789/.

carotid blood pressure = assay: Hypotensive activity (carotid blood pressure, anesthetized rats); format: in vivo, male rats, Sprague-Dawley S.P.F.; conditions: i.v.
Experimental: The hypotensive activity was determined on male rats of the Sprague-Dawley S.P.F. strain weighing about 300 g and anesthesized with nembutal at an intraveinous dose of 50 mg/kg. The test product was administered intraveinously into the jugular vein and the carotid blood pressure was measured before and after the administration of the tested compound. The variation in the arterial pressure after the administration of the tested compound as compared to the initial arterial pressure as well as the time necessary for the pressure to return to the initial value were determined.

| SMILES | Antagonism against reserpine (reserpinic rigidity; 20 mg/kg) | LD50 at 48 h [1] [mg/kg] | rotations, test (a) ([2]; 25 mg/kg) | rotations, test (b) ([3]; 25 mg/kg) | Antagonism against reserpinic rigidity, in words (reserpinic rigidity) | further results |
| --- | --- | --- | --- | --- | --- | --- |
| CN1CCCC(c2ccc(O)c(O)c2)C1 (stereo not drawn) [Example 1, N-methyl-3-(3',4'-dihydroxyphenyl)-piperidine hydrobromide] | ++ | 150 | – | – | – | – |
| CC(=O)Oc1ccc(C2CCCN(C)C2)cc1OC(C)=O (stereo not drawn) [Example 2, N-methyl-3-(3',4'-diacetoxyphenyl)-piperidine oxalate] | ++ | 150 | – | – | – | – |
| CCN1CCCC(c2ccc(O)c(O)c2)C1 (stereo not drawn) [Example 3, N-ethyl-3-(3',4'-dihydroxyphenyl)-piperidine hydrobromide] | + | 150 | ipsilateral rotations | contralateral rotations | – | – |
| CCCN1CCCC(c2ccc(O)c(O)c2)C1 (stereo not drawn) [Example 4, N-propyl-3-(3',4'-dihydroxyphenyl)-piperidine hydrobromide] | + | 150 | – | – | – | – |
| Oc1ccc(C2CCCN(Cc3ccccc3)C2)cc1O (stereo not drawn) [Example 5, N-benzyl-3-(3',4'-dihydroxyphenyl)-piperidine oxalate] | +++ | 150 | ipsilateral rotation | contralateral rotations | very active | rotation, test (c) [4]: ipsilateral rotation |
| CC(=O)Oc1ccc(C2CCCN(Cc3ccccc3)C2)cc1OC(C)=O (stereo not drawn) [Example 6, N-benzyl-3-(3',4'-diacetoxyphenyl)-piperidine oxalate] | +++ | 300 | ipsilateral rotation | contralateral rotations | very active | rotation, test (c) [4]: ipsilateral rotation; duration of hypotension (carotid blood pressure; 10 mg/kg, hypotension of 20 to 30%): more than one hour |
| Oc1ccc(C2CCCN(CCc3ccccc3)C2)cc1O (stereo not drawn) [Example 7, N-(β-phenylethyl)-3-(3',4'-dihydroxyphenyl)-piperidine fumarate] | – | 150 | – | – | very active | Antagonism against reserpine (reserpinic rigidity; 10 mg/kg): ++; rotations, test (a) ([2]; 10 mg/kg): ipsilateral rotations; rotations, test (b) ([3]; 10 mg/kg): contralateral rotations; duration of hypotension (carotid blood pressure; 0.1 mg/kg, hypotension of 5 to 10%): 10 min; hypotension (carotid blood pressure; 1 mg/kg): 30%; duration of hypotension (carotid blood pressure; 1 mg/kg, hypotension of 30%): more than an hour |
| CCCN1CCCC(c2ccc(OC(C)=O)c(OC(C)=O)c2)C1 (stereo not drawn) [Example 8, N-propyl-3-(3',4'-diacetoxyphenyl)-piperidine oxalate] | ++ | 250 | ipsilateral rotations | contralateral rotations | – | – |
| CC(C)N1CCCC(c2ccc(O)c(O)c2)C1 (stereo not drawn) [Example 9, N-isopropyl-3-(3',4'-dihydroxyphenyl)-piperidine hydrobromide] | + | 150 | – | – | – | – |
| C=CCN1CCCC(c2ccc(O)c(O)c2)C1 (stereo not drawn) [Example 10, N-allyl-3-(3',4'-dihydroxyphenyl)-piperidine hydrobromide] | – | 150 | – | contralateral rotations | – | – |
